From PMC3454376, “Salidroside Improves Behavioral and Histological Outcomes and Reduces Apoptosis via PI3K/Akt Signaling after Experimental Traumatic Brain Injury” (PLoS ONE, 2012)

System: mice subjected to controlled cortical impact injury
Experiment: Fluoro-Jade B staining of degenerating neurons
Assay type: in vivo
Conditions: day 1
Description: All animal procedures were approved by the Animal Research Committee at Cheng Hsin General Hospital (Animal permit number […] 101-08), and all procedures complied with the Guide for the Care and Use of Laboratory Animals published by the US National Institutes of Health (NIH Publication No. 85-23, revised 1996). Animals were housed under a 12-h light/dark cycle and at constant temperature (21-25°C) and humidity (45-50%). They were allowed free access to pellet chow and water. TBI in mice was induced by a CCI injury model as previously described. Briefly, 8-week-old male C57BL/6 mice (weighing 22-25 g) were anesthetized through the use of intraperitoneal injection of sodium pentobarbital (65 mg/kg; Rhone Merieux, Harlow, UK) and placed in a stereotaxic frame. A 5 mm craniotomy was performed over the right parietal cortex, centered on the coronal suture and 0.1 mm lateral to the sagittal suture, and injury to dura was avoided. Injury was induced using a pneumatic piston with a rounded metal tip (2.5 mm diameter) that was angled 22.5° to the vertical so that the tip was perpendicular with the brain surface at the center of the craniotomy. The impact, with a velocity of […] and a deformation depth of 2 mm below the dura, was applied. The bone flap was immediately replaced and sealed, and the scalp was sutured. Body temperature was monitored throughout the surgery by a rectal probe; temperature was maintained at 37.0±0.5°C using a heated pad. Mice were placed in a heated cage to maintain body temperature, while recovering from anesthesia. Sham-operated mice underwent the same procedure as injured mice, but without CCI. Three sets of experiments were performed. The first set was to investigate the protective effects of salidroside. All animals were randomized into 1 of 3 groups (sham injury, CCI + vehicle, CCI + SALD 20). Surgery/injury, behavioral testing, and tissue analyses were performed by different individuals. Behavioral testing and tissue analyses were performed by individuals blinded to the treatment group. Salidroside (Cayman Chemical, Ann Arbor, MI, USA) dissolved in normal saline (0.25 mL) or a corresponding volume of vehicle (saline) was administered intraperitoneally 10 min following injury. Testing after injury was completed as follows: 1) behavioral testing at days 1, 4, 7, 14, 21, and 28 (n = 8-10 mice/group); 2) cresyl violet staining at day 28 (n = 9 mice/group); 3) histology, determination of brain water content, and western blot analysis at day 1 or 3 (n = 5-6 mice/group). To determine the optimal dose of salidroside, a pilot study was performed using 2 different doses (20 and 50 mg/kg) administered 10 min after injury, and neurological deficits and tissue damage were evaluated as the main outcomes. […] The second set of experiment was to assess the effect of the inhibition of PI3K/Akt with the specific PI3K inhibitor, LY294002 (Cell Signaling Technology, Danvers, MA, USA), on salidroside effects. Animals were randomized into 4 groups. Mice received either: 1) icv pretreatment of LY294002 followed by SALD 20 after CCI (S20Y group); or 2) icv pretreatment of saline (vehicle control) followed by SALD 20 after CCI (S20V group). 3) Mice were infused icv with saline and were subjected to sham injury. 4) Mice were infused icv with LY294002 and were subjected to sham injury. Testing after injury was completed as follows: 1) cresyl violet staining at day 28 (n = 6 mice/group); 2) western blot analysis at day 1 (n = 6 mice/group). The third set of experiment was performed to examine the neuroprotective time window afforded by salidroside. Mice received intraperitoneal SALD 20 or vehicle (saline) at 3 or 6 h following CCI and were sacrificed 1 day later for FJB staining and western blot analysis (n = 6 mice/group). […]

OC[C@H]1O[C@@H](OCCc2ccc(O)cc2)[C@H](O)[C@@H](O)[C@@H]1O [SALD, salidroside]
FJB-positive neurons around the injured cortical area (20 mg/kg ip 10 min after CCI, vehicle 87.9±5.9, P<0.01): 55.1±6.9 cells/field
reduction of the number of FJB-positive neurons (20 mg/kg ip 10 min after injury): 37.3%
reduction of neuronal damage (FJB) (20 mg/kg ip 3 h after injury): 21.9%
FJB-positive neurons around the injured cortical area (20 mg/kg ip 3 h after injury, vehicle 91.2±3.3, P<0.001): 71.2±2.7 cells/field
reduction of neuronal damage (FJB) (20 mg/kg ip 6 h after injury): 22.8%
FJB-positive neurons around the injured cortical area (20 mg/kg ip 6 h after injury, vehicle 92.9±3.3, P<0.001): 71.7±1.6 cells/field
